For test [1], the target named is T1, Sterol O-acyltransferase 1 (Rattus norvegicus, UniProt O70536).
T1 sequence (O70536 whole entry): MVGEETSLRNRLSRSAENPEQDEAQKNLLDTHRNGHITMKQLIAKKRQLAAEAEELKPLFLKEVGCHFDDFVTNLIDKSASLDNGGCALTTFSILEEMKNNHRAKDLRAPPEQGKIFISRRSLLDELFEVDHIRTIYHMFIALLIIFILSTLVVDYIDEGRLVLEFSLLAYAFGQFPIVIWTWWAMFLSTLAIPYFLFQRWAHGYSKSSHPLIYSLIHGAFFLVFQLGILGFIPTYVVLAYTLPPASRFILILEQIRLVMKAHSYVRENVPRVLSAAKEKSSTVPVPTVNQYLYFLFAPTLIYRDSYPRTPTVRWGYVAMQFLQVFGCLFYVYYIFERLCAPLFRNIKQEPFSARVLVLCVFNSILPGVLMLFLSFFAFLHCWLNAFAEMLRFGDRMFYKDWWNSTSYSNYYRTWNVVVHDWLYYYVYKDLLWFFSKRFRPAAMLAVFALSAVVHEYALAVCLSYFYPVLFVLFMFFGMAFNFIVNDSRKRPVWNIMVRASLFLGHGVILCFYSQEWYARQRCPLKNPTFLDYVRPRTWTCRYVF
Briefly: Concentration required for the in vitro inhibition of Acyl coenzyme A:cholesterol acyltransferase (ACAT) in liver microsomes isolated from cholesterol-fed rats. Details: species or system Microsome. A general note: Microsomes from liver hold many membrane-bound enzymes, among them those of drug oxidation.

For test [2], the species on record is Rattus norvegicus. Nature of the test: Percent change in total cholesterol in cholic acid (0.5%)-cholesterol (1.5%)-peanut oil (5.5%)-fed rats. The test is classed as functional.
Test [3] concerns the target T2, Acyl-CoA:cholesterol acyltransferase (Oryctolagus cuniculus, UniProt Q95214).
T2 sequence (Q95214 whole entry): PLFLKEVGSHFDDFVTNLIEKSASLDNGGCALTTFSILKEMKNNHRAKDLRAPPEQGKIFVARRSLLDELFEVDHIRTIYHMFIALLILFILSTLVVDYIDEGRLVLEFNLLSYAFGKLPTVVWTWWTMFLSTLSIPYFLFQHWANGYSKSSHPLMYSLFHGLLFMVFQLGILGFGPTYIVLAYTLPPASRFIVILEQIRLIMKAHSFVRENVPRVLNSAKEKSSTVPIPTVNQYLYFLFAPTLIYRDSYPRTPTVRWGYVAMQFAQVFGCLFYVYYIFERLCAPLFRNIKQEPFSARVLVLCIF
Nature of the test: Concentration required for the in vitro inhibition of Acyl coenzyme A:cholesterol acyltransferase (ACAT) in intestinal microsomes isolated from cholesterol-fed rabbits. On the set-up: species or system Intestine.

In the case of `CCCCCCCCCCCCn1nnc(C(NC(=O)c2ccc(C)cc2)c2ccccc2)n1` (configuration not stated), in test [1], the midpoint of inhibition, the IC50, lay at 510 nM. Besides, the “Change TC” value in test [2] was -4%.

Regarding `CCCCCCCCCCCCn1nnc(C(NC(=O)c2c(C)cccc2C)c2ccccc2)n1` (configuration not stated), the IC50 – broadly, the concentration that gives 50% inhibition – in test [3] was 110 nM; in test [1], 310 nM. For the same compound, the “Change TC” value in test [2] is on record as -40%.

`CCCCCCCCCCCCn1nnnc1C(NC(=O)c1ccnc(SC)c1)c1ccccc1` (configuration not stated): the IC50 in test [1] was determined as 140 nM. Besides, the “Change TC” value in test [2] is given as -37%.

With `CCCCCCCCCCCCn1nnc(C(NC(=O)c2c(Cl)cccc2Cl)c2ccccc2)n1` (configuration not stated), the 50% inhibitory concentration (IC50) in test [1] stood at 460 nM. Also, the “Change TC” value in test [2] is given as -26%.

In the case of `CCCCCCCn1nnc(C(NC(=O)c2c(C)cccc2C)c2ccccc2)n1` (configuration not stated), in test [2], the “Change TC” value was -13%.

With `CCCCCCCCCCCCn1nnnc1C(NC(=O)c1ccccc1C(F)(F)F)c1ccccc1` (configuration not stated), the IC50 in test [1] was found to be 350 nM. In test [2], the “Change TC” value is -12%.

As to `CCCCCCCCCCCCn1nnc(C(NC(=O)c2ccccc2[N+](=O)[O-])c2ccccc2)n1` (configuration not stated), the IC50 in test [1] was determined as 240 nM. In addition, in test [2], the “Change TC” value is -27%.

Regarding `CCCCCCCCCCCCn1nnc(C(NC(=O)c2ccccc2C(F)(F)F)c2ccccc2)n1` (configuration not stated), in test [1], the half-maximal inhibitory concentration (IC50) is 120 nM. In test [2], the “Change TC” value was -15%.

For `CCCCCCCCCCCCn1nnc(C(NC(=O)c2ccc(OC)cc2)c2ccccc2)n1` (configuration not stated), in test [1], half-maximal inhibition (IC50) required 600 nM. Besides, the “Change TC” value in test [2] was -34%.

`CCCCCCCCCCCCn1nnc(C(NC(=O)c2cccc(Cl)c2)c2ccccc2)n1` (configuration not stated) displayed a concentration for half-maximal inhibition (IC50) in test [1] of 250 nM. For the same compound, the “Change TC” value in test [2] came out at 3%.

As for `CCCCCCCCCCCCn1nnc(C(NC(=O)c2ccc(F)cc2F)c2ccccc2)n1` (configuration not stated), the midpoint of inhibition in test [1], the IC50, lay at 490 nM. Further, the “Change TC” value in test [2] was -10%.

Consider `CCCCCCCCCCCCn1nnc(C(NC(=O)c2ccccc2OC)c2ccccc2)n1` (configuration not stated), for which the concentration for half-maximal inhibition (IC50) in test [1] was determined as 650 nM. For the same compound, the “Change TC” value in test [2] was -28%.

`CCCCCCCCCCCCn1nnnc1C(NC(=O)c1ccc(F)cc1F)c1ccccc1` (configuration not stated) had a half-maximal inhibitory concentration (IC50) in test [1] of 380 nM. Moreover, the “Change TC” value in test [2] is recorded as -23%.

In turn, `CCCCCCCCCCCCn1nnc(C(NC(=O)c2cccc([N+](=O)[O-])c2)c2ccccc2)n1` (configuration not stated) yielded an IC50 in test [1] of 80 nM. Further, the “Change TC” value in test [2] is -33%.

On to `CCCCCCCCCCC(C)(C)NC(=O)c1c(OC)cc(OC)cc1OC`, for which the IC50 in test [1] is more than 10000 nM. The “Change TC” value in test [2] is -10%.

Compound `CCCCCCCCCCCCn1nnnc1C(NC(=O)c1c(C)cccc1C)c1ccccc1` (configuration not stated) yielded an IC50 in test [1] of 180 nM. Further, in test [2], the “Change TC” value is -57%.

Regarding `CCCCCCCCCCCCn1nnc(C(NC(=O)c2c(C(C)C)cccc2C(C)C)c2ccccc2)n1` (configuration not stated), the IC50 in test [1] turned out to be 810 nM. In addition, the “Change TC” value in test [2] is recorded as 2%.

Turning to `CCCCCCCCCCCCCCCn1nnc(C(NC(=O)c2c(C)cccc2C)c2ccccc2)n1` (configuration not stated), in test [2], the “Change TC” value is reported as -14%.

`CCCCCCCC/C=C\CCCCCCCCNC(=O)c1c(OC)cc(OC)cc1OC` returned an IC50 in test [1] of 9400 nM.

`CCCCCCCCCCCCn1nnc(C(NC(=O)c2ccc(Cl)cc2)c2ccccc2)n1` (configuration not stated) registered an IC50 in test [1] of 440 nM.

In the case of `CCCCCCCCCCCCn1nnc(C(NC(=O)c2ccc(C(F)(F)F)cc2)c2ccccc2)n1` (configuration not stated), in test [1], the 50% inhibitory concentration (IC50) was found to be 850 nM. Besides, in test [2], the “Change TC” value is -10%.

In the case of `CCCCCCCCCCCCn1nnc(C(NC(=O)c2ccc([N+](=O)[O-])cc2)c2ccccc2)n1` (configuration not stated), in test [1], the half-maximal inhibitory concentration (IC50) is 540 nM. Further, in test [2], the “Change TC” value turned out to be 8%.

For `CCCCCCCCCCCCn1nnc(C(NC(=O)c2c(OC)cc(OC)cc2OC)c2ccccc2)n1` (configuration not stated), the half-inhibitory concentration (IC50) in test [1] turned out to be 1700 nM. Moreover, the “Change TC” value in test [2] was -36%.

Consider `CCCCCCCCCCCCn1nnnc1C(NC(=O)c1cccc([N+](=O)[O-])c1)c1ccccc1` (configuration not stated), for which the concentration for half-maximal inhibition (IC50) in test [1] is 190 nM. The “Change TC” value in test [2] is given as -31%.

The compound `CCCCCCCCCCCCn1nnc(C(NC(=O)c2ccccc2)c2ccccc2)n1` (configuration not stated) displayed a concentration for half-maximal inhibition (IC50) in test [1] of 350 nM. The “Change TC” value in test [2] is -5%.

For `CCCCCCCCCCCCn1nnnc1C(NC(=O)c1c(Cl)cccc1Cl)c1ccccc1` (configuration not stated), the IC50 in test [1] was found to be 380 nM. In addition, the “Change TC” value in test [2] is -31%.

On to `CCCCCCCCCCCCn1nnc(C(NC(=O)c2ccnc(SC)c2)c2ccccc2)n1` (configuration not stated), for which, in test [1], the IC50 was determined as 80 nM. Also, the “Change TC” value in test [2] was -68%.

Consider `CCCCCCCCCCC(C)(C)C(=O)Nc1c(OC)cc(OC)cc1OC` [CL-976], for which the “Change TC” value in test [2] was -73%.

These data come from ChEMBL document CHEMBL1128123, “Inhibitors of acyl-CoA: Cholesterol O-acyl transferase (ACAT) as hypocholesterolemic agents. 12. Syntheses and biological activity of structurally novel tetrazole amides” (Bioorg Med Chem Lett, 1995).
